Assay results: patent publication US20140141974A1, “Fungicidal phenylalkyl-substituted 2-[2-chloro-4-(4-chloro-phenoxy)-phenyl]-1-[1,2,4]triazol-1-yl-ethanol compounds” (BASF SE, priority 2011, published 2014)

What was measured:
Phakopsora pachyrhizi = test: Protective control of soy bean rust on soy beans (Use Example 4, greenhouse comparative test); type: in vivo; conditions: soy bean seedlings, inoculated 1 day after spraying, untreated control 80
Method: The spray solutions were prepared in several steps:
The stock solutions were prepared: a mixture of acetone and/or dimethylsulfoxide and the wetting agent/emulsifier Wettol, which is based on ethoxylated alkylphenoles, in a relation (volume) solvent-emulsifier of 99 to 1 was added to 25 mg of the compound to give a total of 5 ml. Water was then added to total volume of 100 ml.
This stock solution was diluted with the described solvent-emulsifier-water mixture to the given concentration.
Leaves of pot-grown soy bean seedlings were sprayed to run-off with an aqueous suspension, containing the concentration of active ingredient or their mixture as described below. The plants were allowed to air-dry. The trial plants were cultivated for 1 day in a greenhouse chamber at 23-27° C. and a relative humidity between 60 and 80%. Then the plants were inoculated with spores of Phakopsora pachyrhizi. To ensure the success the artificial inoculation, the plants were transferred to a humid chamber with a relative humidity of about 95% and 20 to 24° C. for 24 h. The trial plants were cultivated for fourteen days in a greenhouse chamber at 23-27° C. and a relative humidity between 60 and 80%. The extent of fungal attack on the leaves was visually assessed as % diseased leaf area.

[1] = tested on: Puccinia recondita (Puccrt K4); test: Curative control of brown rust on wheat (Use Example 5, greenhouse comparative test); type: in vivo; conditions: wheat seedlings, sprayed after inoculation, untreated control 90
Method: The spray solutions were prepared in several steps: The stock solutions were prepared: a mixture of acetone and/or dimethylsulfoxide and the wetting agent/emulsifier Wettol, which is based on ethoxylated alkylphenoles, in a relation (volume) solvent-emulsifier of 99 to 1 was added to 25 mg of the compound to give a total of 5 ml. Water was then added to total volume of 100 ml. This stock solution was diluted with the described solvent-emulsifier-water mixture to the given concentration. The first two developed leaves of pot-grown wheat seedling were dusted with spores of Puccinia recondita. To ensure the success the artificial inoculation, the plants were transferred to a humid chamber without light and a relative humidity of 95 to 99% and 20 to 24° C. for 24 h. The next day the plants were cultivated for 3 days in a greenhouse chamber at 20-24° C. and a relative humidity between 65 and 70%. Then the plants were sprayed to run-off with an aqueous suspension, containing the concentration of active ingredient or their mixture as described below. The plants were allowed to air-dry. Then the trial plants were cultivated for 8 days in a greenhouse chamber at 20-24° C. and a relative humidity between 65 and 70%. The extent of fungal attack on the leaves was visually assessed as % diseased leaf area.

## OC(Cn1cncn1)(c1ccccc1)c1ccc(Oc2ccc(Cl)cc2)cc1Cl (stereo not drawn) [Compound I-1]
Phakopsora pachyrhizi
  Disease (%) at 150 ppm: 1%

## OC(/C=C/c1ccccc1)(Cn1cncn1)c1ccc(Oc2ccc(Cl)cc2)cc1Cl (stereo not drawn) [Compound V20, reference compound]
[1]
  Disease (%) at 63 ppm: 55%
Phakopsora pachyrhizi
  Disease (%) at 150 ppm: 50%

## OC(Cc1ccccc1)(Cn1cncn1)c1ccc(Oc2ccc(Cl)cc2)cc1Cl (stereo not drawn) [Compound I-2, 2-[2-chloro-4-(4-chloro-phenoxy)-phenyl]-1-phenyl-3-[1,2,4]triazol-1-yl-propan-2-ol]
[1]
  Disease (%) at 63 ppm: 35%
Phakopsora pachyrhizi
  Disease (%) at 150 ppm: 3%

## OC(C#Cc1ccccc1)(Cn1cncn1)c1ccc(Oc2ccc(Cl)cc2)cc1Cl (stereo not drawn) [Compound I-4]
[1]
  Disease (%) at 63 ppm: 20%
